ChEMBL document CHEMBL5442219

Experiments:
Settings in all cases: Compound concentration 10 µM
[1] = molecular target: T1, Alpha-1A adrenergic receptor (Homo sapiens) (UniProt P35348)
T1 sequence (whole entry): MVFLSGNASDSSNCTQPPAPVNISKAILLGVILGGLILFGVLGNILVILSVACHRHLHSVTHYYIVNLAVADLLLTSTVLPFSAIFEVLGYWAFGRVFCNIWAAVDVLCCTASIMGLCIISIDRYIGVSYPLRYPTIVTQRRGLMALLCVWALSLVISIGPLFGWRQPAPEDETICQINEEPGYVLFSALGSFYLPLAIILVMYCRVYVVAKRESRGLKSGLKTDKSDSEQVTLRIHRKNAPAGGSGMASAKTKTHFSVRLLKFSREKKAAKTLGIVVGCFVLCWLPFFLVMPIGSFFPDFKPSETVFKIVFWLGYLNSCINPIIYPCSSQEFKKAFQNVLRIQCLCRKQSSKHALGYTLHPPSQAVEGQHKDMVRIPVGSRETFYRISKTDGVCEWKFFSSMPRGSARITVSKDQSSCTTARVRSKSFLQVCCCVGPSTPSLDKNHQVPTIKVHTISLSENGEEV

[2] = molecular target: T2, Alpha-2A adrenergic receptor (Homo sapiens) (UniProt P08913)
T2 sequence (whole entry): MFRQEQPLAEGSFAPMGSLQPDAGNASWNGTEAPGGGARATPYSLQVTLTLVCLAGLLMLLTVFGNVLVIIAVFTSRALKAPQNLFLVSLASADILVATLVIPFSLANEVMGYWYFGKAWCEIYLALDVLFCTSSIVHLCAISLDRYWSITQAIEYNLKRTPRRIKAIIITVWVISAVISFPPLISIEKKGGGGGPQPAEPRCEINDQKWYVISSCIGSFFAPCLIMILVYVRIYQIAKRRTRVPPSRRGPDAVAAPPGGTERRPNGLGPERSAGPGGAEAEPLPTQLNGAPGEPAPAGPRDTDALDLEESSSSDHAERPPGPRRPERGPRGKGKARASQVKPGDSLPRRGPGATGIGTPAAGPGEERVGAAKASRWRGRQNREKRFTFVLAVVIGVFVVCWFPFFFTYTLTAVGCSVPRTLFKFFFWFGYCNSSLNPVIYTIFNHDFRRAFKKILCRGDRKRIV

[3] = molecular target: T3, Muscarinic acetylcholine receptor M1 (Homo sapiens) (UniProt P11229)
T3 sequence (whole entry): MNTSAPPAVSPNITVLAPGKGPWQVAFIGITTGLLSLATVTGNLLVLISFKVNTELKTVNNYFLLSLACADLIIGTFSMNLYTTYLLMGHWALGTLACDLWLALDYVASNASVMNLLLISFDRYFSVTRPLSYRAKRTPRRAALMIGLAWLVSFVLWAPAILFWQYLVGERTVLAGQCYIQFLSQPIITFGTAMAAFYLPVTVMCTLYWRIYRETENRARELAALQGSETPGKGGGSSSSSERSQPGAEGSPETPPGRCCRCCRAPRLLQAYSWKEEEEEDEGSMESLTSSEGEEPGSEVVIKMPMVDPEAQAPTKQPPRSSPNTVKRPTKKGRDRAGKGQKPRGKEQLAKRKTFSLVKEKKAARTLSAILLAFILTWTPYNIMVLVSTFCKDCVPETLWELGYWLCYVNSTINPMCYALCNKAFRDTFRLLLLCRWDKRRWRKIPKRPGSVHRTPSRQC

[4] = molecular target: Muscarinic acetylcholine receptor M3 (Homo sapiens) (UniProt P20309)
Sequence of Muscarinic acetylcholine receptor M3 (Homo sapiens) (P20309 whole entry, looked up): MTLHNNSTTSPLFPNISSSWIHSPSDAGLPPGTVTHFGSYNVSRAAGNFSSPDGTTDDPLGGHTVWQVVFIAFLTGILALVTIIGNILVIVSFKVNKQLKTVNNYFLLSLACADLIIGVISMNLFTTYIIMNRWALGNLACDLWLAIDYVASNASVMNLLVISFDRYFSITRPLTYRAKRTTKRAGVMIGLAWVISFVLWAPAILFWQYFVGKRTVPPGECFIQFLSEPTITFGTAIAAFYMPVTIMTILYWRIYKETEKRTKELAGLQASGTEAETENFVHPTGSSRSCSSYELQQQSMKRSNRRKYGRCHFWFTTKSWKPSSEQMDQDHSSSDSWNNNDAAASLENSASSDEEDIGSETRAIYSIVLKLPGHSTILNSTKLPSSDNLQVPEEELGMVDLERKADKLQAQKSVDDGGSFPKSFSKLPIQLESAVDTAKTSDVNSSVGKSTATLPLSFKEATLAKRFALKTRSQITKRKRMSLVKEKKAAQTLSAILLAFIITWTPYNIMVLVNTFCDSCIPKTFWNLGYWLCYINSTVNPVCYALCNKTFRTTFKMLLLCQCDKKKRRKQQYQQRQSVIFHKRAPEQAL

[5] = molecular target: D(2) dopamine receptor (Homo sapiens) (UniProt P14416)
[6] = molecular target: D(1B) dopamine receptor (Homo sapiens) (UniProt P21918)
[7] = molecular target: Histamine H1 receptor (Homo sapiens) (UniProt P35367)
Sequence of Histamine H1 receptor (Homo sapiens) (P35367 whole entry): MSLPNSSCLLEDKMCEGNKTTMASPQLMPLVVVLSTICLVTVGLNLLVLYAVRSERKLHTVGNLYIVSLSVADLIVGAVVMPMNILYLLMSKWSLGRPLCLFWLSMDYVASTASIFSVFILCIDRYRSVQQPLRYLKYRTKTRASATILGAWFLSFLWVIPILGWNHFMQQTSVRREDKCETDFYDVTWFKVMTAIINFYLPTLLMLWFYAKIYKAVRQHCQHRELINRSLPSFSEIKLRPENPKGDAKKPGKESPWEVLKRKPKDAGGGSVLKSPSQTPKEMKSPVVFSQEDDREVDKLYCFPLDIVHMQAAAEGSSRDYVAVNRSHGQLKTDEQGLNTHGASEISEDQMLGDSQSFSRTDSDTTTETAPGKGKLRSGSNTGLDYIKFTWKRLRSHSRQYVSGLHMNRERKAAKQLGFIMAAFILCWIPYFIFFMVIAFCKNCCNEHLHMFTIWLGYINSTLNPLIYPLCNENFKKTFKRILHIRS

[8] = molecular target: Histamine H3 receptor (Homo sapiens) (UniProt Q9Y5N1)
[9] = molecular target: Histamine H4 receptor (Homo sapiens) (UniProt Q9H3N8)
Sequence of Histamine H4 receptor (Homo sapiens) (Q9H3N8 whole entry): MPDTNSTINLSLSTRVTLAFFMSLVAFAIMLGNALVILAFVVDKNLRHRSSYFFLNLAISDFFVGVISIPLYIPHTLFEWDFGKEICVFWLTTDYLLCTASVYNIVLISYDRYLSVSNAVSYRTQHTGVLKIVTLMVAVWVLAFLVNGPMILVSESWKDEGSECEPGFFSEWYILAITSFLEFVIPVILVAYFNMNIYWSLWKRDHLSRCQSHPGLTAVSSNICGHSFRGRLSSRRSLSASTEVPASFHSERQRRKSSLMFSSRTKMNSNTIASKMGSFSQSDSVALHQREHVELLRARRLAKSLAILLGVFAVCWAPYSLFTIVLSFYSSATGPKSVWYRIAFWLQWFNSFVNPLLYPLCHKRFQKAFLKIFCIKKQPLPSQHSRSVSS

[10] = molecular target: 5-hydroxytryptamine receptor 1B (Homo sapiens) (UniProt P28222)
Sequence of 5-hydroxytryptamine receptor 1B (Homo sapiens) (P28222 whole entry): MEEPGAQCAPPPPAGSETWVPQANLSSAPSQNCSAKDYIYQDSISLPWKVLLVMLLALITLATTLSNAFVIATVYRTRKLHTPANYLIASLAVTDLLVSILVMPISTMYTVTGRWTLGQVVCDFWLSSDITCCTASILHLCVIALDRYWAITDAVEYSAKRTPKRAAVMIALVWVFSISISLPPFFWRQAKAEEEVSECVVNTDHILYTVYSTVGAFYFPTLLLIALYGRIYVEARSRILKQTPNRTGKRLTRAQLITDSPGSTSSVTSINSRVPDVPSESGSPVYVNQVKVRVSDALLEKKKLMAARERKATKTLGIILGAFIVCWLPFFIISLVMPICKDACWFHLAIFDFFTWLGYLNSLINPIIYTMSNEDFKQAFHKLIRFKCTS

[11] = molecular target: 5-hydroxytryptamine receptor 1D (Homo sapiens) (UniProt P28221)
Sequence of 5-hydroxytryptamine receptor 1D (Homo sapiens) (P28221 whole entry): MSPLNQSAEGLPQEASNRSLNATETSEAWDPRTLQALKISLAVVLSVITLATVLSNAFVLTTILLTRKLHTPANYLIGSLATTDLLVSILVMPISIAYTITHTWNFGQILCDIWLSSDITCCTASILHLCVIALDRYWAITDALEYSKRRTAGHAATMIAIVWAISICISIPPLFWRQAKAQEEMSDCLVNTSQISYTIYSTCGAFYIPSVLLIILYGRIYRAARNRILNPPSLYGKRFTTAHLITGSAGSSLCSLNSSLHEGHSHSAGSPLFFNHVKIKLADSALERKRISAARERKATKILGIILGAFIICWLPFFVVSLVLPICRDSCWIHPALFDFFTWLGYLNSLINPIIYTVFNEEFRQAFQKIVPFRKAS

[12] = molecular target: 5-hydroxytryptamine receptor 1E (Homo sapiens) (UniProt P28566)
Sequence of 5-hydroxytryptamine receptor 1E (Homo sapiens) (P28566 whole entry): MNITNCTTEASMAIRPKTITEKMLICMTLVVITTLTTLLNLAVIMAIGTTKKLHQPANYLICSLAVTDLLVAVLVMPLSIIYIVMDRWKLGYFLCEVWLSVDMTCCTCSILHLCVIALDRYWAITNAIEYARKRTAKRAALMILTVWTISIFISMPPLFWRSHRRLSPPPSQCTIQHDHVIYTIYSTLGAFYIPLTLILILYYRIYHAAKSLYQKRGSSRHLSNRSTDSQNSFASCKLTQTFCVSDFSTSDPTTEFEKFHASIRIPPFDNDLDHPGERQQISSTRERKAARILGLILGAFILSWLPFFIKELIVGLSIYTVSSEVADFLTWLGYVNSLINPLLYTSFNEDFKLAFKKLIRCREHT

[13] = molecular target: 5-hydroxytryptamine receptor 2A (Homo sapiens) (UniProt P28223)
Sequence of 5-hydroxytryptamine receptor 2A (Homo sapiens) (P28223 whole entry): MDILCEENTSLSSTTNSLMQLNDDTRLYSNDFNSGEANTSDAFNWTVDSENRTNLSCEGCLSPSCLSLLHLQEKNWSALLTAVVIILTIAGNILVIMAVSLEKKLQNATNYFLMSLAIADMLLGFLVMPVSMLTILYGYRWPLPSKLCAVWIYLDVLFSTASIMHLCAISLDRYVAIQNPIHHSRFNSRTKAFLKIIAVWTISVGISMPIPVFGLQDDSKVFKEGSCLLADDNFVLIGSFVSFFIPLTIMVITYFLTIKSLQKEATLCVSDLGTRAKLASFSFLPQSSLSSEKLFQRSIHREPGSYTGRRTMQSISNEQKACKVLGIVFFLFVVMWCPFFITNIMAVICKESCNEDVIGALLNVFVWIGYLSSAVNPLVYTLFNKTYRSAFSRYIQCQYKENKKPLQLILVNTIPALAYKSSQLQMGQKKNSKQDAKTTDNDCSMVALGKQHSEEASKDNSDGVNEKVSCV

[14] = molecular target: 5-hydroxytryptamine receptor 5A (Homo sapiens) (UniProt P47898)
[15] = molecular target: 5-hydroxytryptamine receptor 6 (Homo sapiens) (UniProt P50406)
Sequence of 5-hydroxytryptamine receptor 6 (Homo sapiens) (P50406 whole entry): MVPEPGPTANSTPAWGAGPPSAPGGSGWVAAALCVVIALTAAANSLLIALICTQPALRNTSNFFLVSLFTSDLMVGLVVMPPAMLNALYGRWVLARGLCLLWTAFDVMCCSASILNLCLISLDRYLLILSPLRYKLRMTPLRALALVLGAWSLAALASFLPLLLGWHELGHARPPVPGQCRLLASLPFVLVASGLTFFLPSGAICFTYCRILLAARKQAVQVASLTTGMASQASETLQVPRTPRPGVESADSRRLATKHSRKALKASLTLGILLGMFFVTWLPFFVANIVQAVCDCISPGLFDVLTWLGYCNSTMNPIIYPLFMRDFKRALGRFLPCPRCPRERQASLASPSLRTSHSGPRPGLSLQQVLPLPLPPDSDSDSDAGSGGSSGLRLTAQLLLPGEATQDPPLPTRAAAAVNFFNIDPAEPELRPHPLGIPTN

[16] = molecular target: 5-hydroxytryptamine receptor 7 (Homo sapiens) (UniProt P34969)
[17] = molecular target: Delta-type opioid receptor (Homo sapiens) (UniProt P41143)
Sequence of Delta-type opioid receptor (Homo sapiens) (P41143 whole entry): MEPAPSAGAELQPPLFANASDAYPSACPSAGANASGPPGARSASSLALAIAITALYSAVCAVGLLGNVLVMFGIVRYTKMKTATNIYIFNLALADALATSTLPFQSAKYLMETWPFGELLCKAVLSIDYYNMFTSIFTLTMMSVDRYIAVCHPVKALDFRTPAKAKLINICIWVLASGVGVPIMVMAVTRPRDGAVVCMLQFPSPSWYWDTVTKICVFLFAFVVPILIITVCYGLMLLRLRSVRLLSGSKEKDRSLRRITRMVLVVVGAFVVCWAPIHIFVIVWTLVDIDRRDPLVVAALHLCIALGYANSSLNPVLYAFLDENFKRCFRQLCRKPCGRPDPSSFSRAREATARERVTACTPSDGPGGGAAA

[18] = molecular target: Sigma non-opioid intracellular receptor 1 (Homo sapiens) (UniProt Q99720)
Sequence of Sigma non-opioid intracellular receptor 1 (Homo sapiens) (Q99720 whole entry): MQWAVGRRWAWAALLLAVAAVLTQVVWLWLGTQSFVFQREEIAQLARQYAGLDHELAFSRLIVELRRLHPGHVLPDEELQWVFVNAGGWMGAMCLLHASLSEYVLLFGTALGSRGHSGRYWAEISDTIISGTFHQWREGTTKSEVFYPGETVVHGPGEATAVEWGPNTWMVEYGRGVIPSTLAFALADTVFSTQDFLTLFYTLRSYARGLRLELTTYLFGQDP

[19] = molecular target: Sigma intracellular receptor 2 (Homo sapiens) (UniProt Q5BJF2)
Sequence of Sigma intracellular receptor 2 (Homo sapiens) (Q5BJF2 whole entry): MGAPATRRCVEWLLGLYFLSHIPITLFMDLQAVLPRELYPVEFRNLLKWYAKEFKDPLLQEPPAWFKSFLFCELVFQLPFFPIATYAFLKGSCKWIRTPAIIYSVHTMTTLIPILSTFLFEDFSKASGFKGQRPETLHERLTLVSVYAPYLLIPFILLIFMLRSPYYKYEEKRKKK

[20] = molecular target: Beta-2 adrenergic receptor (Homo sapiens) (UniProt P07550)
[21] = molecular target: D(1A) dopamine receptor (Homo sapiens) (UniProt P21728)
Sequence of D(1A) dopamine receptor (Homo sapiens) (P21728 whole entry): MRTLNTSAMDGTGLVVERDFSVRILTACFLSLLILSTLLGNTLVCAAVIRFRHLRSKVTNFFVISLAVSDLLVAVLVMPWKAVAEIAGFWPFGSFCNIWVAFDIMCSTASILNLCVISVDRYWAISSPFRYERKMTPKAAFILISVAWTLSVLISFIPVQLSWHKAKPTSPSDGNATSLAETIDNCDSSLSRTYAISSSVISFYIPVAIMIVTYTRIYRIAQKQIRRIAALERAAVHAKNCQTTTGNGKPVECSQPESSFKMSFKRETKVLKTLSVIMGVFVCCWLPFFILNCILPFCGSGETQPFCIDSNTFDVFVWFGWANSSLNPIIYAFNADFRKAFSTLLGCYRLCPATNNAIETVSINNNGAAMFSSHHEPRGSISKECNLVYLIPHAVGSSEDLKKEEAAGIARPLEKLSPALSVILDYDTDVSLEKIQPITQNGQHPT

| SMILES | inhibition [1] | inhibition [2] | inhibition [3] | inhibition [4] | inhibition [5] | inhibition [6] | inhibition [7] | inhibition [8] | inhibition [9] | inhibition [10] | inhibition [11] | inhibition [12] | inhibition [13] | inhibition [14] | inhibition [15] | inhibition [16] | inhibition [17] | inhibition [18] | inhibition [19] | inhibition [20] | further results |
| --- | --- | --- | --- | --- | --- | --- | --- | --- | --- | --- | --- | --- | --- | --- | --- | --- | --- | --- | --- | --- | --- |
| Cc1nc(C#Cc2ccnc(Cl)c2)c(C)n1-c1ccc(OC(F)(F)F)cc1 | 14.3% | 23.9% | 26.6% | -6.52% | 28.3% | 6% | -4.73% | 0.66% | -9.98% | 11.3% | 48.9% | 20.5% | 16.1% | 30% | -0.41% | 7.42% | -5.91% | 56.3% | 75.5% |  |  |
| NC[C@H](O)c1ccc(O)c(O)c1 | 7.82% | 61.9% | -6.89% |  | 6.01% | 34.8% |  |  |  | 10.7% | 24.3% | 1.24% | 10.9% |  |  | -5% | -5.14% | 39.1% | 24.6% | 16.9% | inhibition [21]: 2.57% |
| CNc1nc(NCc2ccc(NS(C)(=O)=O)cc2Cl)cc(-c2ccccn2)n1 | 8% | 43.2% | 9.22% | -1.96% | -4.41% |  | 12% | -8.26% | 0.58% | 3.99% | 0.67% | -3.24% | 60.3% | 75.4% | 47% | 77.9% | -8.14% | 87.2% | 39.1% |  | inhibition [21]: 7.8% |
| FC(F)(F)c1cccc(-c2noc(-c3cc(-c4ccccc4)c(C(F)(F)F)s3)n2)c1 |  | -2.79% | 21.5% | -5.11% | 24.7% |  | 17% |  |  | 1.92% | -9.1% | 10.4% | -1.97% | 18.8% | -0.25% | 7.06% |  | -0.34% |  |  |  |
| CN1CCN(c2ccc(Nc3c4ccccc4nc4ccccc34)cc2)CC1 | 50.9% | 70.5% | 51.2% | 43.4% | -0.18% | 14.1% | 54.4% | 82.6% | 15.5% | 30.3% | 54.3% | 46.2% | 5.02% | 20.3% | 13.8% | 84.4% | 5.07% | 86.4% | 70.8% | 81.7% |  |
| CCC(=O)NCC[C@@H]1CCc2ccc3c(c21)CCO3 | -9.5% | 18.4% | -3.08% |  | 2.72% | -3.26% | -1.68% |  |  | 15.8% | 6.75% | -5.33% | 6.79% | 21.8% |  | 12.4% | -5.97% | 89.6% | 47.4% | 12.6% | inhibition [21]: -1.3% |
| C[N+]1(C)[C@@H]2C[C@@H](OC(=O)C(O)(c3cccs3)c3cccs3)C[C@H]1[C@@H]1O[C@@H]12 | 3.89% | 6.5% | 94.5% | 99.2% | 15.2% |  | 92.1% |  | -8.1% | 14.9% | 32.9% | 11.2% | -4.76% | 2.25% | -5.82% | -5.44% | -1.59% | 32.7% | 66.5% | 16.1% |  |
| CCc1nn(CCCN2CCN(c3cccc(Cl)c3)CC2)c(=O)n1CCOc1ccccc1 | 96% | 91.1% |  | 0.27% | 69.7% | 6.13% | 94.5% | -2.65% | 5.27% | 88% | 100% | -4.17% | 82% | 73.3% | 74.7% | 97% | 13% | 1.48% | 91.7% | -0.82% | inhibition [21]: 77.7% |
| N#Cc1c[nH]c2c(C(=O)N3CCN(CCc4ccc(F)cc4)CC3)cccc12 | -8.21% | -0.21% | -2.04% |  | 7.47% | 8.62% | 46.1% | -0.43% | -2.67% | -5.18% | 61.7% | 27.3% | 100% | 12.6% | 37.8% | 50.6% |  | 87.6% | 68.2% | 60.9% | inhibition [21]: 27.9% |
| Cc1cc(C)cc(-c2cnc3cc(Cl)c(-c4cccc(O)c4)cc3c2OCCCN)c1 | 28.4% | 64.9% | 24.3% | 59.2% | 37.3% | 72.9% | 98.8% | 10.6% | 68.2% | 88.2% | 91.8% | 54.4% | 63.2% | 96.4% | 59% | 54.9% | 50.2% | 74.9% | 94.9% | 92.8% |  |
| N#Cc1c(N)nc(SCc2csc(-c3ccc(Cl)cc3)n2)c(C#N)c1-c1ccc(OCCO)cc1 | 6.84% | 26.7% | -3.33% |  |  |  | 14.2% | 5.12% | -8.37% | 13% | 5.65% | -9.34% | 18.4% | -4.31% |  | 3.33% |  | 39% | 36.6% | 17% | inhibition [21]: 11.3% |
